Key:
[1] = system: 08-387 neurosphere line transduced with EGFRvIll or GFP; test: Resistance assay, EGFRvIll or GFP transduced cells; assay type: cell-based, human; parameters: dose or concentration left out as unconfirmed
Method: (§1) Ten thousand 08-387 or 913 glioblastoma cells per well were seeded in a 96 well plate. Post 24 hr plating, 08-387 and 913 cells were treated with a varying dosage of compound 1 or with a varying dosage of gemcitabine alone or with 100 nM of compound 1. Post 72 hr of treatment, cell viability was calculated on Alamar blue absorbance reading.
(§2) The pLV[Expressior]-mCherry:T2A:Hygro-EF1A>Luc2 (Addgene Plasmid #174665) and pLV[Exp]-Bsd-EFS>EGFRvIll:T2A:TurboGFP (Addgene Plasmid #189841) lentivirus plasmids were designed by us and constructed by VectorBuilder. These plasmids are available at Addgene.
(§3) To further evaluate the potential role of EGFR in compound 1 resistance, the 913 and 08-387 neurosphere lines were transduced with lentiviruses encoding EGFRvIll or GFP (as control) and these neurospheres were challenged with a relatively high dose of 1 mM compound 1.

[2] = system: 913 neurosphere line transduced with EGFRvIll or GFP; test: Resistance assay, EGFRvIll or GFP transduced cells; assay type: cell-based, human; parameters: dose or concentration left out as unconfirmed
Method: as §1, §2, §3

[3] = system: 08-387 orthotopic xenografts; test: Orthotopic glioblastoma xenograft, drug treatment; assay type: in vivo
Method: (§4) Experiments with animals were performed in compliance with institutional guidelines and regulations. Four- to six-week-old male and female NCG mice (NOD-Prkdcem26Cd52112rgem26Cd22/NjuCrl, Charles River Laboratory, Wilmington, MA) were used in all experiments in approximately equal numbers of each sex in each experimental group. The 08-387 m-Cherry Luciferase or 913 Luciferase expressing cells (1×10 5) were stereotactically injected into the right striatum as previously described (30). Two weeks after the injection of the cells, tumor growth was monitored with bioluminescence imaging using an IVIS Spectrum imaging system equipped with the Living Image software package (Perkin Elmer). Male and female mice harboring orthotopic xenografts with Radiance (p/sec/cm2/sr) equal to or greater than 1x10 6 were randomly assigned to the control or compound 1 treatment groups. Mice were dosed daily by oral gavage with either vehicle (90/10 Kollisolv® PEG400/EtOH solution) or 3 mg/kg compound 1. Animal weight was monitored daily, and mice were sacrificed when they became symptomatic.
(§5) To generate equivalent treatment groups and facilitate the tracking of xenograft growth, these cells were transduced with a mCherry:Luciferase reporter. An equal number of male and female immunodeficient mice were injected, and overall survival was the primary endpoint. Mice were imaged weekly starting two weeks after the injection and then randomized to the two treatment groups when tumor Radiance surpassed 1x10 6 photons/sec/cm^2/sr (sr=units of solid angle or steradian). Compound 1 (3 mg/kg) or vehicle were delivered daily by oral gavage.

[4] = system: 913 orthotopic xenografts; test: Orthotopic glioblastoma xenograft, drug treatment; assay type: in vivo
Method: as §4, §5

913 neurosphere line = test: Western blot for cleaved PARP1; assay type: cell-based, human; details: 10 nM
Method: (§6) Western Blots were performed using 25 µg of protein per sample loaded onto NuPAGE® Novex® 4-12% Bis-Tris protein gels and transferred onto nitrocellulose membranes that were then blocked with 5% BSA in PBS and 0.1% Tween (PBST). Primary antibody incubation was performed in 5% BSA in PBST at 4° C. overnight, and HRP-labeled secondary antibody incubation (1:5000) was performed for one hour at room temperature in 5% BSA in PBST.
(§7) Antibodies used for western blotting were acquired from the following sources: Cleaved PARP (Asp214) (D64E10) XP® Rabbit mAb, Cell Signaling Technology Cat#5625, RRID:AB_10699459, 1:1000 for Western blots. Phospho-H2AX, Millipore Cat#RRID:AB_2755003, 1:1000 for Western blots, and 1:250 for immunofluorescence imaging. p-Tubulin, Millipore Cat #MAB5564, RRID:AB 11212768, 1:10,000 for Western blots. p44/42 MAPK (Erk1/2) (137F5) Rabbit mAb (Cell Signaling Technology Cat #4695, RRID:AB_390779) 1:1000 for Western blots; Phospho-p44/42 MAPK (Erk1/2) (Thr202/Tyr204) (Cell Signaling Technology Cat #9101, RRID:AB_331646) 1:1000 for Western blots; Akt Antibody (Cell Signaling Technology Cat #9272, RRID:AB_329827) 1:1000 for Western blots; Phospho-Akt (Ser473) Antibody (Cell Signaling Technology Cat #9271, RRID:AB 329825) 1:1000 for Western blots.
(§8) Poly(ADP-ribose) polymerase 1 (PARP1) is a nuclear protein that is activated by binding to DNA lesions and catalyzes the poly(ADP-ribosyl)ation of various nuclear proteins, including PARP1 itself, to recruit the DNA repair machinery to DNA lesions (53, 54. When excessive DNA damage occurs, PARP1 is cleaved to generate an 89 kDa fragment shown to serve as a cytoplasmic PAR carrier to induce AIF-mediated apoptosis (55). Given the profound induction of DNA damage in compound 1-treated GBM neurospheres, the prevalence of the 89 kDa PARP1 fragment in control and 10 nM compound 1-treated cells was measured. Strikingly, a 9.7- and 56-fold increase in the level of cleaved PARP1 was found in 913 and 08-387 neurosphere lines, respectively, when cultured in normoxia. Similarly, a 9.9- and 71-fold increase was documented in the level of cleaved PARP1 in 913 and 08-387 neurosphere lines cultured in hypoxia (FIG. 6).

08-387 neurosphere line = test: Western blot for cleaved PARP1; assay type: cell-based, human; details: 10 nM
Method: as §6, §7, §8

SMILES: CCn1c(CO)nn(-c2cc(O[C@@H](C)C(F)(F)F)c(C(=O)Nc3c(F)cccc3Cl)cc2F)c1=O [Compound 1, N-(2-chloro-6-fluorophenyl)-4-[4-ethyl-4,5-dihydro-3-(hydroxymethyl)-5-oxo-1H-1,2,4-triazol-1-yl]-5-fluoro-2-[(1S)-2,2,2-trifluoro-1-methylethoxy]-benzamide]
- surviving cell fraction ([1]; 08-387 EGFRvIll): 36.7%
- surviving cell fraction ([1]; 08-387 GFP (control)): 4%
- surviving cell fraction ([2]; 913 EGFRvIll): 55.2%
- surviving cell fraction ([2]; 913 GFP (control)): 27.9%
- tumor radiance compared to controls ([3]; 08-387, week 1, 3 mg/kg daily oral): roughly the same
- tumor radiance lower compared to controls ([3]; 08-387, week 2, 3 mg/kg daily oral): 47%
- tumor radiance lower compared to controls ([3]; 08-387, week 3, 3 mg/kg daily oral): 75%
- body weight / tolerability ([3]; 08-387 xenograft mice, 3 mg/kg daily oral gavage): no significant weight loss
- median survival from initiation of treatment ([3]; 08-387 xenografts, 3 mg/kg daily oral (vehicle 12 days)): 19 days
- increase in median survival ([3]; 08-387 xenografts, vs vehicle): 58%
- tumor radiance lower than in vehicle controls ([4]; 913, week 1, 3 mg/kg daily oral): 6.5%
- tumor radiance lower than in vehicle controls ([4]; 913, week 2, 3 mg/kg daily oral): 41%
- tumor radiance lower than in vehicle controls ([4]; 913, week 3, 3 mg/kg daily oral): 52%
- body weight / tolerability ([4]; 913 xenograft mice, 3 mg/kg daily oral gavage): no significant weight loss
- median survival from initiation of treatment ([4]; 913 xenografts, 3 mg/kg daily oral (vehicle 32 days)): 41 days
- increase in median survival ([4]; 913 xenografts, vs vehicle): 28%
- increase in the level of cleaved PARP1 (913 neurosphere line; 913, hypoxia): 9.9 fold
- increase in the level of cleaved PARP1 (913 neurosphere line; 913, normoxia): 9.7 fold
- increase in the level of cleaved PARP1 (08-387 neurosphere line; 08-387, hypoxia): 71 fold
- increase in the level of cleaved PARP1 (08-387 neurosphere line; 08-387, normoxia): 56 fold
